Results as given in article PMC4807618 (Angewandte Chemie (International ed. in English), 2016).

What was measured:
[1] = test system: NA activity of oseltamivir-susceptible (wild-type) H1N1 influenza virus A/Netherlands/049/2008; type: biochemical
[2] = test system: NA activity of oseltamivir-susceptible (wild-type) H1N1 influenza virus A/Brisbane/59/2007; type: biochemical

Compound | effect on NA activity [1] | effect on NA activity [2]
CCN[C@H]1C[C@H](C)S(=O)(=O)c2sc(S(N)(=O)=O)cc21 [Dorzolamide, dorzolamide] | no effect | no effect
CCn1cc(C(=O)O)c(=O)c2ccc(C)nc21 [Nalidixic acid, nalidixic acid] | no effect | no effect
